Measured values: patent publication US10800792B2, “Inhibitors of Bruton's tyrosine kinase and method of their use” (JANSSEN PHARMACEUTICA NV, priority 2015, dated 2020)

Target: unphosphorylated-BTK kinase domain (UP-BTK), GST-tagged human BTK (389-659aa) (Homo sapiens (Human), UniProt Q06187)
Assay: BTK kinase Lanthascreen binding assay
Settings: unphosphorylated-BTK kinase domain, 50 nM Tracer 236, 60 minutes, pIC50 = negative log of the IC50 in molar; for IC50: read-out: BTK_I_binding pIC50 (converted)
Outline: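 Lanthascreen competition binding; test compound vs fluorescent tracer on unphosphorylated BTK. Output: pIC50 (−log IC50, M).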

Chain of unphosphorylated-BTK kinase domain (UP-BTK), GST-tagged human BTK (389-659aa) (Q06187 389-659): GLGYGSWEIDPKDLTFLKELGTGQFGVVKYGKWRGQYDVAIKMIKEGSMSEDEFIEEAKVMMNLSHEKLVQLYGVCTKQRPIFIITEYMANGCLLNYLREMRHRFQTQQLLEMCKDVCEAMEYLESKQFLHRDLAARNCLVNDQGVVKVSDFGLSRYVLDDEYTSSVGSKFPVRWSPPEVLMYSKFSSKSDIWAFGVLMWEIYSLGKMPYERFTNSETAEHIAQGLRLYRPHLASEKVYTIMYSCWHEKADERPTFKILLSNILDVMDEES

SMILES: CC(C)Oc1ccc(N2C(=O)Nc3c(C(=O)N[C@@H]4CCCNC4)sc4nccc2c34)cc1 [Example 405, (R)-5-(4-Isopropoxyphenyl)-4-oxo-N-(piperidin-3-yl)-4,5-dihydro-3H-1-thia-3,5,8-triazaacenaphthylene-2-carboxamide]
- IC50: 3.16 µM

SMILES: CCC(=O)N1CCC[C@@H](NC(=O)c2sc3nccc4c3c2NC(=O)N4c2ccc(OC(C)C)cc2)C1 [Example 406, (R)-5-(4-Isopropoxyphenyl)-4-oxo-N-(1-propionylpiperidin-3-yl)-4,5-dihydro-3H-1-thia-3,5,8-triazaacenaphthylene-2-carboxamide]
- BTK_I_binding pIC50: 5.2

SMILES: O=C(N[C@@H]1CCCNC1)c1sc2nccc3c2c1NC(=O)N3c1ccc(-c2cccs2)cc1 [Example 407, (R)-4-Oxo-N-(piperidin-3-yl)-5-(4-(thiophen-2-yl)phenyl)-4,5-dihydro-3H-1-thia-3,5,8-triazaacenaphthylene-2-carboxamide]
- BTK_I_binding pIC50: 5.1

SMILES: C=CC(=O)N1CCC[C@@H](NC(=O)c2sc3nccc4c3c2NC(=O)N4Cc2ccc(Oc3ccccc3)cc2)C1 [Example 408, (R)—N-(1-Acryloylpiperidin-3-yl)-4-oxo-5-(4-phenoxybenzyl)-4,5-dihydro-3H-1-thia-3,5,8-triazaacenaphthylene-2-carboxamide]
- BTK_I_binding pIC50: 5.1

SMILES: CN1CC[C@@H](NC(=O)c2sc3nccc4c3c2NC(=O)N4Cc2ccc(Oc3ccccc3)cc2)C1 [Example 409, (R)—N-(1-Methylpyrrolidin-3-yl)-4-oxo-5-(4-phenoxybenzyl)-4,5-dihydro-3H-1-thia-3,5,8-triazaacenaphthylene-2-carboxamide]
- BTK_I_binding pIC50: 5.0

SMILES: O=C(N[C@@H]1CCCNC1)c1sc2nccc3c2c1NC(=O)N3c1ccc2sccc2c1 [Example 410, (R)-5-(Benzo[b]thiophen-5-yl)-4-oxo-N-(piperidin-3-yl)-4,5-dihydro-3H-1-thia-3,5,8-triazaacenaphthylene-2-carboxamide]
- BTK_I_binding pIC50: 5.0

SMILES: CN1CCC[C@@H](NC(=O)c2sc3nccc4c3c2NC(=O)N4Cc2ccc(Oc3ccccc3)cc2)C1 [Example 411, (R)—N-(1-Methylpiperidin-3-yl)-4-oxo-5-(4-phenoxybenzyl)-4,5-dihydro-3H-1-thia-3,5,8-triazaacenaphthylene-2-carboxamide]
- BTK_I_binding pIC50: <5

SMILES: O=C(N[C@@H]1CCCNC1)c1sc2nccc3c2c1NC(=O)N3Cc1ccc(Oc2ccccc2)cc1 [Example 412, (R)-4-Oxo-5-(4-phenoxybenzyl)-N-(piperidin-3-yl)-4,5-dihydro-3H-1-thia-3,5,8-triazaacenaphthylene-2-carboxamide]
- BTK_I_binding pIC50: <5

SMILES: Cc1cc(OC(F)(F)F)ccc1N1C(=O)Nc2c(C(=O)N[C@@H]3CCCNC3)sc3nccc1c23 [Example 413, (R)-5-(2-Methyl-4-(trifluoromethoxy)phenyl)-4-oxo-N-(piperidin-3-yl)-4,5-dihydro-3H-1-thia-3,5,8-triazaacenaphthylene-2-carboxamide]
- IC50: 2.51 µM

SMILES: C=CC(=O)N1CCC[C@@H](NC(=O)c2sc3nccc4c3c2NC(=O)N4c2ccc(OC(F)(F)F)cc2C)C1 [Example 414, (R)—N-(1-Acryloylpiperidin-3-yl)-5-(2-methyl-4-(trifluoromethoxy)phenyl)-4-oxo-4,5-dihydro-3H-1-thia-3,5,8-triazaacenaphthylene-2-carboxamide]
- BTK_I_binding pIC50: 7.4

SMILES: O=C(N[C@@H]1CCCNC1)c1sc2nccc3c2c1NC(=O)N3c1ccc(OC(F)(F)F)cc1 [Example 415, (R)-4-Oxo-N-(piperidin-3-yl)-5-(4-(trifluoromethoxy)phenyl)-4,5-dihydro-3H-1-thia-3,5,8-triazaacenaphthylene-2-carboxamide]
- IC50: 6.31 µM

SMILES: C=CC(=O)N1CCC[C@@H](NC(=O)c2sc3nccc4c3c2NC(=O)N4c2ccc(OC(F)(F)F)cc2)C1 [Example 416, (R)—N-(1-Acryloylpiperidin-3-yl)-4-oxo-5-(4-(trifluoromethoxy)phenyl)-4,5-dihydro-3H-1-thia-3,5,8-triazaacenaphthylene-2-carboxamide]
- BTK_I_binding pIC50: 6.7

SMILES: C=CC(=O)N1CCC[C@@H](NC(=O)c2sc3nccc4c3c2NC(=O)N4c2ccc3ccccc3c2)C1 [Example 419, (R)—N-(1-Acryloylpiperidin-3-yl)-5-(naphthalen-2-yl)-4-oxo-4,5-dihydro-3H-1-thia-3,5,8-triazaacenaphthylene-2-carboxamide]
- BTK_I_binding pIC50: 5.7

SMILES: C=CC(=O)N1CCC[C@@H](NC(=O)c2sc3nccc4c3c2NC(=O)N4c2ccn(Cc3ccccc3)n2)C1 [Example 420, (R)—N-(1-Acryloylpiperidin-3-yl)-5-(1-benzyl-1H-pyrazol-3-yl)-4-oxo-4,5-dihydro-3H-1-thia-3,5,8-triazaacenaphthylene-2-carboxamide]
- BTK_I_binding pIC50: 6.0

SMILES: C=CC(=O)N1CCC[C@@H](NC(=O)c2sc3nccc4c3c2NC(=O)N4c2cccc(-c3ccccc3)c2)C1 [Example 421, (R)-5-([1,1′-Biphenyl]-3-yl)-N-(1-acryloylpiperidin-3-yl)-4-oxo-4,5-dihydro-3H-1-thia-3,5,8-triazaacenaphthylene-2-carboxamide]
- BTK_I_binding pIC50: 7.9

SMILES: C=CC(=O)N1CCC[C@@H](NC(=O)c2sc3nccc4c3c2NC(=O)N4c2ccc(Cc3ccccc3)cc2)C1 [Example 422, (R)—N-(1-Acryloylpiperidin-3-yl)-5-(4-benzylphenyl)-4-oxo-4,5-dihydro-3H-1-thia-3,5,8-triazaacenaphthylene-2-carboxamide]
- BTK_I_binding pIC50: 7.5

SMILES: C=CC(=O)N1CCC[C@@H](NC(=O)c2sc3nccc4c3c2NC(=O)N4c2ccc(-c3ccccc3)cc2)C1 [Example 423, (R)-5-([1,1′-Biphenyl]-4-yl)-N-(1-acryloylpiperidin-3-yl)-4-oxo-4,5-dihydro-3H-1-thia-3,5,8-triazaacenaphthylene-2-carboxamide]
- BTK_I_binding pIC50: 6.3

SMILES: CN(C)CC(=O)N1CCC[C@@H](NC(=O)c2sc3nccc4c3c2NC(=O)N4c2ccc(Oc3ccccc3)cc2)C1 [Example 424, (R)—N-(1-(2-(Dimethylamino)acetyl)piperidin-3-yl)-4-oxo-5-(4-phenoxyphenyl)-4,5-dihydro-3H-1-thia-3,5,8-triazaacenaphthylene-2-carboxamide]
- BTK_I_binding pIC50: 7.2

SMILES: CN(C)CC(=O)N1CC[C@@H](NC(=O)c2sc3nccc4c3c2NC(=O)N4c2ccc(Oc3ccccc3)cc2)C1 [Example 425, (R)—N-(1-(2-(Dimethylamino)acetyl)pyrrolidin-3-yl)-4-oxo-5-(4-phenoxyphenyl)-4,5-dihydro-3H-1-thia-3,5,8-triazaacenaphthylene-2-carboxamide]
- BTK_I_binding pIC50: 7.3

SMILES: O=C(N[C@@H]1CCCNC1)c1sc2nccc3c2c1NC(=O)N3c1cccc(-c2ccccc2)c1 [Example 426, (R)-5-([1,1′-Biphenyl]-3-yl)-4-oxo-N-(piperidin-3-yl)-4,5-dihydro-3H-1-thia-3,5,8-triazaacenaphthylene-2-carboxamide]
- BTK_I_binding pIC50: 6.9

SMILES: C=CC(=O)N1CCC[C@@H](NC(=O)c2sc3nccc4c3c2NC(=O)N4c2cc3ccccc3s2)C1 [Example 427, (R)—N-(1-Acryloylpiperidin-3-yl)-5-(benzo[b]thiophen-2-yl)-4-oxo-4,5-dihydro-3H-1-thia-3,5,8-triazaacenaphthylene-2-carboxamide]
- BTK_I_binding pIC50: 6.3

SMILES: O=C(N[C@@H]1CCCNC1)c1sc2nccc3c2c1NC(=O)N3c1cc2ccccc2s1 [Example 428, (R)-5-(Benzo[b]thiophen-2-yl)-4-oxo-N-(piperidin-3-yl)-4,5-dihydro-3H-1-thia-3,5,8-triazaacenaphthylene-2-carboxamide]
- BTK_I_binding pIC50: <5

SMILES: O=C(N[C@@H]1CCCNC1)c1sc2nccc3c2c1NC(=O)N3c1ccc2ccccc2c1 [Example 429, (R)-5-(Naphthalen-2-yl)-4-oxo-N-(piperidin-3-yl)-4,5-dihydro-3H-1-thia-3,5,8-triazaacenaphthylene-2-carboxamide]
- BTK_I_binding pIC50: <5

SMILES: O=C(N[C@@H]1CCCNC1)c1sc2nccc3c2c1NC(=O)N3c1ccc(Cc2ccccc2)cc1 [Example 430, (R)-5-(4-Benzylphenyl)-4-oxo-N-(piperidin-3-yl)-4,5-dihydro-3H-1-thia-3,5,8-triazaacenaphthylene-2-carboxamide]
- BTK_I_binding pIC50: 6.3

SMILES: O=C(N[C@@H]1CCCNC1)c1sc2nccc3c2c1NC(=O)N3c1ccn(Cc2ccccc2)n1 [Example 431, (R)-5-(1-Benzyl-1H-pyrazol-3-yl)-4-oxo-N-(piperidin-3-yl)-4,5-dihydro-3H-1-thia-3,5,8-triazaacenaphthylene-2-carboxamide]
- BTK_I_binding pIC50: <5

SMILES: Cc1cc(Oc2ccccc2)ccc1N1C(=O)Nc2c(C(=O)NC3(CO)CCOCC3)sc3nccc1c23 [Example 436, N-(4-(Hydroxymethyl)tetrahydro-2H-pyran-4-yl)-5-(*S)-(2-methyl-4-phenoxyphenyl)-4-oxo-4,5-dihydro-3H-1-thia-3,5,8-triazaacenaphthylene-2-carboxamide]
- BTK_I_binding pIC50: 7.3

SMILES: Cc1cc(Oc2ccccc2)ccc1N1C(=O)Nc2c(C(=O)NC3(CO)CCOCC3)sc3nccc1c23 [Example 437, N-(4-(Hydroxymethyl)tetrahydro-2H-pyran-4-yl)-5-(*R)-(2-methyl-4-phenoxyphenyl)-4-oxo-4,5-dihydro-3H-1-thia-3,5,8-triazaacenaphthylene-2-carboxamide]
- BTK_I_binding pIC50: 5.8
